# “Also recorded” adds a separate entry of the source. Counter-ions that a name gives are not always drawn. Like-named read-outs stand apart in the source and are kept apart here.
# Columns and labels:
# [1] = MMF exposure in plasma and tissues after DMF PO/IV or MMF IV (LC-MS/MS); assay type: in vivo, C57BL/6 mice
# Experimental: Aliquots (25 μL) of either plasma or tissue homogenate samples were extracted by protein precipitation with acetonitrile containing 4C13-MMF as the internal standard. For tissue samples, aliquots of homogenization solution (plasma with 12.5 mg/mL of NaF) were added to the tissue samples. The tissue samples were homogenized at 6.5 m/s for 60 seconds on a Fast Prep Tissue Homogenizer prior to protein precipitation. Concentrations of MMF in plasma, brain, jejunum and kidney samples were determined using qualified LC-MS/MS assays in the respective matrices. Data collections and integrations were accomplished using an API 5500 triple quadrupole mass spectrometer with a turbo ion spray interface (AB Sciex, Foster City, Calif.), and Analyst software (version 1.6.1). The peak area ratios of MMF relative to its internal standard were used to construct a standard curve using a quadratic regression with a 1/x^2 weighting. The lower limits of quantitation (LLOQ) were 1 ng/mL for the three tissue assays and 10 ng/mL for the plasma assay, respectively. The performances of the assays were monitored by the precision and accuracy of the standards and quality control samples.
# MMF exposure levels were evaluated 10 minutes and 2 hours after dosing, while pharmacodynamic transcriptional responses were analyzed at 2 hours post-dose.
# (§1) At the 10-minute time point, 4 animals from each group were sacrificed, with plasma and tissues (brain, jejunum and kidney) collected to determine MMF exposure. Two hours after dosing, the remaining 4 animals were sacrificed, and plasma and tissues were collected. Tissue samples from the 2-hour time point were divided, with half of each sample used for MMF exposure analysis, and half for RNA extraction and qRT-PCR to evaluate the expression of Nrf2 target genes.
# MMF exposure levels were evaluated 10 minutes and 2 hours after dosing, while transcriptional pharmacodynamic responses were analyzed at 2 and 6 hours post-dose. A complete blood count (CBC) with differential panel was performed at 10 minutes, 2 hours, and 6 hours post-dose.
# (§2) Ten minutes after dosing, 4 animals from each group were sacrificed, and plasma and tissues (brain, kidney, jejunum and spleen) were collected to quantify MMF exposure levels, as well as whole blood to perform CBC. Two hours post-dose, another 4 animals from each group were sacrificed, and plasma, whole blood, and tissues were collected. Tissue samples from the 2-hour time point were split, with half of each sample used for MMF exposure analysis, and half for RNA extraction/qRT-PCR to evaluate the expression of Nrf2 target genes. Six hours after dosing, the last 4 animals from each group were sacrificed, and whole blood and tissues were collected.
# [2] = Tail histopathology for DMF IV multi-dose tolerability; assay type: in vivo, C57BL/6 mice; details: Study 3, DMF IV 30 mg/kg once a day for 5 consecutive days
# Experimental: Tissue samples were preserved in 10% neutral buffered formalin (NBF) and then transferred to the Translational Pathology Laboratory for processing into paraffin blocks, slide preparation, and hematoxylin and eosin staining. Histopathology evaluation of the stained slides was performed by the Biogen Idec Comparative Pathology department (data not provided herein).
# (§3) A CBC with differential panel was performed at 10 minutes post-last dose via facial vein bleeding, and at 2 hours after the last dose, pharmacodynamic Nrf2 transcriptional responses were analyzed in tissues from the same animals. Histopathology was also performed on regions of the tail in a pilot toxicology study.
# [3] = Tail histopathology after 5 days of once daily DMF IV tail vein dosing; assay type: in vivo, Sprague-Dawley rats; details: 5 days of repeated once daily tail vein injections
# [4] = Solubility of DMF in aqueous media at 37° C.; assay type: physicochemical; details: thermodynamic from solid
# [5] = test system: Nrf2 target genes; assay: qRT-PCR of Nrf2 target genes, statements over all tested genes; assay type: in vivo, C57BL/6 mice
# Experimental: For RNA preparation, frozen tissues were placed in 2 mL RNAse-free 96-well blocks with 1.5 mL QIAzol Lysis Reagent (QIAgen) and a 3.2 mm stainless steel bead (BioSpec Products, Bartlesville, Okla.). Tissues were disrupted for four cycles of 45 seconds in a Mini-Beadbeater (Biospec Products). RNA was extracted with chloroform and the aqueous phase was mixed with an equal volume of 70% ethanol. Extracted RNA was applied to RNeasy 96 plates and purified by the spin method according to the manufacturer's protocol (RNeasy 96 Universal Tissue Protocol, QIAgen, Hilden Germany).
# Samples were reverse-transcribed into cDNA according to the manufacturer protocols using the High Capacity cDNA Reverse Transcription Kit (Life Technologies, Carlsbad, Calif.) and analyzed by qRT-PCR. Mouse target gene primers and 6-FAM™ dye-labeled TaqMan® MGB™ probes (Life Technologies) were used. Reactions containing 100 ng of cDNA, 900 nM of each primer, and 250 nM TaqMan probes were cycled on a QuantStudio 12 k-flex system (Life Technologies) once for 10 minutes at 95° C., followed by 40 cycles of 95° C. for 10 seconds and 60° C. for 1 minute. All samples were measured in triplicate with Gapdh as a normalizing gene. Taqman primer/probe sets from Life Technologies included: Akr1b8 (Mm00484314_m1); Gapdh (Mm03302249_g1); Gclc (Mm00802655_m1); Hmox1 (Mm00516005_m1); Nqo1 (Mm01253561_m1); and Osgin1 (Mm00660947_m1). Comparative CT method was used to calculate fold changes and samples were normalized relative to time-matched vehicle control.
# as §1, §2, §3
# [6] = Study 3, DMF IV 30 mg/kg once daily x5, 2 hours after dosing
compound,measurement,setting,value
"COC(=O)/C=C/C(=O)OC [DMF, dimethyl fumarate]",MMF level in plasma,"[1]; Study 1, IV DMF, 2 hours",no detectable MMF in plasma
same,MMF level in any tissue,"[1]; Study 1, PO or IV DMF, 2 hours",no detectable MMF in any tissue
same,MMF level in plasma or any tissues,"[1]; Study 2, 2 hours, DMF 30 mg/kg or MMF 27.08 mg/kg IV",no detectable MMF in plasma or in any tissues
same,"MMF levels in kidney, jejunum and spleen, DMF versus MMF","[1]; Study 2, IV, 10 minutes",no significant differences were noted in MMF levels
same,Tail histology near the injection site,[2],changes similar to that which was observed in vehicle control mice; also recorded: did not reveal any treatment-related findings
same,Histopathology findings in the tail,[3],no treatment-related histopathology findings in the tail
same,solubility at 24 h,"[4]; pH 2 citrate buffer, pH 2, aqueous buffer, pH 2 Citrate Buffer, pH 1.93, read-out: Solubility",3770 µg/mL
same,solubility at 24 h,"[4]; pH 2 citrate buffer, pH 2, aqueous buffer, pH 2 Citrate Buffer, read-out: Solubility Description",1000 to 10000 µg/mL
same,solubility at 24 h,"[4]; pH 4 citrate buffer, pH 4, aqueous buffer, pH 4 Citrate Buffer, pH 3.89, read-out: Solubility",3320 µg/mL
same,solubility at 24 h,"[4]; pH 4 citrate buffer, pH 4, aqueous buffer, pH 4 Citrate Buffer, read-out: Solubility Description",1000 to 10000 µg/mL
same,solubility at 24 h,"[4]; pH 6 citrate buffer, pH 6, aqueous buffer, pH 6 Citrate Buffer, pH 6.01, read-out: Solubility",3470 µg/mL
same,solubility at 24 h,"[4]; pH 6 citrate buffer, pH 6, aqueous buffer, pH 6 Citrate Buffer, read-out: Solubility Description",1000 to 10000 µg/mL
same,solubility at 24 h,"[4]; pH 8 borate buffer, pH 8, aqueous buffer, pH 8 Borate Buffer, pH 5.44, read-out: Solubility",4020 µg/mL
same,solubility at 24 h,"[4]; pH 8 borate buffer, pH 8, aqueous buffer, pH 8 Borate Buffer, read-out: Solubility Description",1000 to 10000 µg/mL
same,solubility at 24 h,"[4]; pH 10 borate buffer, pH 10, aqueous buffer, pH 10 Borate Buffer, pH 5.49, read-out: Solubility",3570 µg/mL
same,solubility at 24 h,"[4]; pH 10 borate buffer, pH 10, aqueous buffer, pH 10 Borate Buffer, read-out: Solubility Description",1000 to 10000 µg/mL
same,solubility at 24 h,"[4]; simulated gastric fluid (SGF, without pepsin), pH 6.9, simulated gastric fluid, SGF (without pepsin), pH 6.90, read-out: Solubility",2950 µg/mL
same,solubility at 24 h,"[4]; simulated gastric fluid without pepsin, pH 1.2, simulated gastric fluid, SGF (without pepsin), read-out: Solubility Description",1000 to 10000 µg/mL
same,solubility at 24 h,"[4]; simulated intestinal fluid (SIF, without pancreatin), pH 1.2, fassgf or other biorelevant, SIF (without pancreatin), pH 1.20, read-out: Solubility",3110 µg/mL
same,solubility at 24 h,"[4]; simulated intestinal fluid without pancreatin, pH 6.9, fassgf or other biorelevant, SIF (without pancreatin), read-out: Solubility Description",1000 to 10000 µg/mL
same,solubility at 24 h,"[4]; water, pH 5.2, water, Water, pH 5.20, read-out: Solubility",2840 µg/mL
same,solubility at 24 h,"[4]; water, pH 5.2, water, Water, read-out: Solubility Description",1000 to 10000 µg/mL
same,"Changes in gene expression, jejunum","[5]; Study 1, DMF IV 17.5 mg/kg, 2 hours",No significant changes in gene expression
same,"Changes in transcript levels, kidney","[5]; Study 2, DMF IV 30 mg/kg, 2 hours",No significant changes
same,"Genes significantly increased, brain",[5]; [6],"significant increase was observed in brain Hmox1, Osgin1, and Gclc levels"
same,"Genes significantly increased, kidney and jejunum",[5]; [6],"Significant increases were also observed in Akr1b8, Nqo1, and Osgin1 levels"
same,Other transcripts in tissues analyzed,"[5]; Study 3, DMF IV 30 mg/kg once daily x5, 2 hours post-last dose",generally unaffected

# — patent US20180289655A1, “Methods and Compositions for the Intravenous Administration of Fumarates for the Treatment of Neurological Diseases” (Biogen MA Inc., priority 2015, published 2018)
